Assay [1] concerns Y. pestis CO99pgm-. Further details: species or system Sprague-Dawley rats. To be noted: rat, in vivo.
Assay [2] concerns Y. pestis CO99pgm-. Also noted: species or system Sprague-Dawley rats. As to conditions: rat, in vivo. The source holds these as a separate data set.

Take `O=C(O)c1cn(C2CC2)c2cc(N3CCNCC3)c(F)cc2c1=O` [Cipro, ciprofloxacin]: in assay [1], the “leukocyte infiltration index (LII)” value is “did not significantly improve”; the lung edema entry was “did not significantly improve”; the “lung scores (combined interstitial and alveolar edema and hemorrhage and LII scores)” value was “did not significantly improve”. In assay [2], the 6-day survival rate is 100%, the “Median Survival Time” value was 84 h and the Survival stood at 28%.

The values above are taken from patent US20090048155A1 (priority 2007, published 2009).
